Earlier results as cited in patent US9851354B2, “Methods of treating fragile X syndrome and related disorders” (Alcobra Ltd., priority 2013, dated 2017).

Conditions: cited from earlier work
[1] = randomized placebo-controlled trial in autistic children (McCracken 2002)

Cc1nc2n(c(=O)c1CCN1CCC(c3noc4cc(F)ccc34)CC1)CCCC2 [risperidone]
social isolation and communication (autistic children): not improved
adverse events [1]: weight gain, increased appetite, fatigue, drowsiness, dizziness, and drooling
irritability subscale of the Aberrant Behavior Checklist and Clinical Global Impressions-Improvement [1]: significant improvement
adverse side effects associated with use (use in autistic children): extrapyramidal symptoms and dyskinesias
